Tested on: HCV type 1b replicon in Huh-7 luc/neo (Huh-Luc) cells
Experiment: HCV replicon assay (Huh-Luc cells, luciferase read-out)
Assay type: cell-based
Conditions: inhibition of HCV replication, three days incubation, luciferase activity
Excerpt: The in vitro antiviral activity against HCV of the compounds of formula I can be tested in a cellular HCV replicon system based on Lohmann et al. (1999) Science 285:110-113, with the further modifications described by Krieger et al. (2001) Journal of Virology 75: 4614-4624 (incorporated herein by reference), which is further exemplified in the examples section. This model, while not a complete infection model for HCV, is widely accepted as the most robust and efficient model of autonomous HCV RNA replication currently available. It will be appreciated that it is important to distinguish between compounds that specifically interfere with HCV functions from those that exert cytotoxic or cytostatic effects in the HCV replicon model, and as a consequence cause a decrease in HCV RNA or linked reporter enzyme concentration. Assays are known in the field for the evaluation of cellular cytotoxicity based for example on the activity of mitochondrial enzymes using fluorogenic redox dyes such as resazurin. Furthermore, cellular counter screens exist for the evaluation of non-selective inhibition of linked reporter gene activity, such as firefly luciferase. Appropriate cell types can be equipped by stable transfection with a luciferase reporter gene whose expression is dependent on a constitutively active gene promoter, and such cells can be used as a counter-screen to eliminate non-selective inhibitors.
The compounds of formula I may be examined for activity in the inhibition of HCV RNA replication in a cellular assay aimed at identifying compounds that inhibit a HCV functional cellular replicating cell line, also known as HCV replicons. A suitable cellular assay is based on a bicistronic expression construct, as described by Lohmann et al. (1999), Science vol. 285 pp. 110-113 with modifications described by Krieger et al. (2001), Journal of Virology 75: 4614-4624, in a multi-target screening strategy.
The assay utilizes the stably transfected cell line Huh-7 luc/neo (hereafter referred to as Huh-Luc). This cell line harbors an RNA encoding a bicistronic expression construct comprising the wild type NS3-NS5B regions of HCV type 1b translated from an Internal Ribosome Entry Site (IRES) from encephalomyocarditis virus (EMCV), preceded by a reporter portion (FfL-luciferase), and a selectable marker portion (neo^R, neomycine phosphotransferase). The construct is bordered by 5′ and 3′ NTRs (non-translated regions) from HCV type 1b. Continued culture of the replicon cells in the presence of G418 (neo^R) is dependent on the replication of the HCV RNA. The stably transfected replicon cells that express HCV RNA, which replicates autonomously and to high levels, encoding inter alia luciferase, are used for screening the antiviral compounds.
The replicon cells are plated in 384 well plates in the presence of the test and control compounds which are added in various concentrations. Following an incubation of three days, HCV replication is measured by assaying luciferase activity (using standard luciferase assay substrates and reagents and a Perkin Elmer ViewLux™ ultraHTS microplate imager). Replicon cells in the control cultures have high luciferase expression in the absence of any inhibitor. The inhibitory activity of a compound on luciferase activity is monitored on the Huh-Luc cells, enabling a dose-response curve for each test compound. EC50 values are then calculated, which value represents the amount of the compound required to decrease the level of detected luciferase activity by 50%, or more specifically, the ability of the genetically linked HCV replicon RNA to replicate.

SMILES | EC50 [µM]
C[C@H](NP(=O)(OC[C@H]1O[C@@H](n2ccc(=O)[nH]c2=O)[C@](C)(N)[C@@H]1O)Oc1ccccc1)C(=O)OC1CCCC1 (single isomer, unassigned) [Example 5A] | 4.7
C[C@H](NP(=O)(OC[C@H]1O[C@@H](n2ccc(=O)[nH]c2=O)[C@](C)(N)[C@@H]1O)Oc1ccccc1)C(=O)OC1CCCC1 (single isomer, unassigned) [Example 5B] | 0.47
C[C@H](NP(=O)(OC[C@H]1O[C@@H](n2ccc(=O)[nH]c2=O)[C@](C)(N)[C@@H]1O)Oc1ccccc1)C(=O)OCCC(C)(C)C (single isomer, unassigned) [Example 6A] | 2.3
C[C@H](NP(=O)(OC[C@H]1O[C@@H](n2ccc(=O)[nH]c2=O)[C@](C)(N)[C@@H]1O)Oc1ccccc1)C(=O)OCCC(C)(C)C (single isomer, unassigned) [Example 6B] | 0.49
C[C@H](NP(=O)(OC[C@H]1O[C@@H](n2ccc(=O)[nH]c2=O)[C@](C)(N)[C@@H]1O)Oc1ccccc1)C(=O)OC1CCCCCC1 (single isomer, unassigned) [Example 7A] | 3
C[C@H](NP(=O)(OC[C@H]1O[C@@H](n2ccc(=O)[nH]c2=O)[C@](C)(N)[C@@H]1O)Oc1ccccc1)C(=O)OC1CCCCCC1 (single isomer, unassigned) [Example 7B] | 0.19
C[C@H](NP(=O)(OC[C@H]1O[C@@H](n2ccc(=O)[nH]c2=O)[C@](C)(N)[C@@H]1O)Oc1ccccc1)C(=O)OC1CCC1 (single isomer, unassigned) [Example 8A] | 1.9
C[C@H](NP(=O)(OC[C@H]1O[C@@H](n2ccc(=O)[nH]c2=O)[C@](C)(N)[C@@H]1O)Oc1ccccc1)C(=O)OC1CCC1 (single isomer, unassigned) [Example 8B] | 0.8
CC(C)OC(=O)[C@H](C)NP(=O)(OC[C@H]1O[C@@H](n2ccc(=O)[nH]c2=O)[C@](C)(N)[C@@H]1O)Oc1ccccc1 (single isomer, unassigned) [Example 9A] | 13
CC(C)OC(=O)[C@H](C)NP(=O)(OC[C@H]1O[C@@H](n2ccc(=O)[nH]c2=O)[C@](C)(N)[C@@H]1O)Oc1ccccc1 (single isomer, unassigned) [Example 9B] | 0.92
C[C@H](NP(=O)(OC[C@H]1O[C@@H](n2ccc(=O)[nH]c2=O)[C@](C)(N)[C@@H]1O)Oc1ccccc1)C(=O)OC1CCCCCCC1 (single isomer, unassigned) [Example 10A] | 15
C[C@H](NP(=O)(OC[C@H]1O[C@@H](n2ccc(=O)[nH]c2=O)[C@](C)(N)[C@@H]1O)Oc1ccccc1)C(=O)OC1CCCCCCC1 (single isomer, unassigned) [Example 10B] | 0.29
CCOC(=O)[C@H](C)NP(=O)(OC[C@H]1O[C@@H](n2ccc(=O)[nH]c2=O)[C@](C)(N)[C@@H]1O)Oc1ccccc1 (single isomer, unassigned) [Example 11A] | 6.4
CCOC(=O)[C@H](C)NP(=O)(OC[C@H]1O[C@@H](n2ccc(=O)[nH]c2=O)[C@](C)(N)[C@@H]1O)Oc1ccccc1 (single isomer, unassigned) [Example 11B] | 0.98
C[C@H](NP(=O)(OC[C@H]1O[C@@H](n2ccc(=O)[nH]c2=O)[C@](C)(N)[C@@H]1O)Oc1ccccc1)C(=O)OC1CCCCC1 (single isomer, unassigned) [Example 12A] | 0.38
C[C@H](NP(=O)(OC[C@H]1O[C@@H](n2ccc(=O)[nH]c2=O)[C@](C)(N)[C@@H]1O)Oc1ccccc1)C(=O)OC1CCCCC1 (single isomer, unassigned) [Example 12B] | 0.13
C[C@H](NP(=O)(OC[C@H]1O[C@@H](n2ccc(=O)[nH]c2=O)[C@](C)(N)[C@@H]1O)Oc1ccccc1)C(=O)OCC(C)(C)C (single isomer, unassigned) [Example 13A] | 2.4
C[C@H](NP(=O)(OC[C@H]1O[C@@H](n2ccc(=O)[nH]c2=O)[C@](C)(N)[C@@H]1O)Oc1ccccc1)C(=O)OCC(C)(C)C (single isomer, unassigned) [Example 13B] | 0.3

SMILES | EC50 [µM]
CCCC(CCC)COC(=O)[C@H](C)NP(=O)(OC[C@H]1O[C@@H](n2ccc(=O)[nH]c2=O)[C@](C)(N)[C@@H]1O)Oc1ccccc1 (single isomer, unassigned) [Example 14A] | 1.6
CCCC(CCC)COC(=O)[C@H](C)NP(=O)(OC[C@H]1O[C@@H](n2ccc(=O)[nH]c2=O)[C@](C)(N)[C@@H]1O)Oc1ccccc1 (single isomer, unassigned) [Example 14B] | 0.42
C[C@H](NP(=O)(OC[C@H]1O[C@@H](n2ccc(=O)[nH]c2=O)[C@](C)(N)[C@@H]1O)Oc1ccccc1)C(=O)OCc1ccccc1 (single isomer, unassigned) [Example 15A] | 3.1
C[C@H](NP(=O)(OC[C@H]1O[C@@H](n2ccc(=O)[nH]c2=O)[C@](C)(N)[C@@H]1O)Oc1ccccc1)C(=O)OCc1ccccc1 (single isomer, unassigned) [Example 15B] | 0.66
COC(=O)[C@H](C)NP(=O)(OC[C@H]1O[C@@H](n2ccc(=O)[nH]c2=O)[C@](C)(N)[C@@H]1O)Oc1ccccc1 (single isomer, unassigned) [Example 16A] | 5.1
COC(=O)[C@H](C)NP(=O)(OC[C@H]1O[C@@H](n2ccc(=O)[nH]c2=O)[C@](C)(N)[C@@H]1O)Oc1ccccc1 (single isomer, unassigned) [Example 16B] | 2.1
CC(C)COC(=O)[C@H](C)NP(=O)(OC[C@H]1O[C@@H](n2ccc(=O)[nH]c2=O)[C@](C)(N)[C@@H]1O)Oc1ccccc1 (single isomer, unassigned) [Example 17A] | 2.6
CC(C)COC(=O)[C@H](C)NP(=O)(OC[C@H]1O[C@@H](n2ccc(=O)[nH]c2=O)[C@](C)(N)[C@@H]1O)Oc1ccccc1 (single isomer, unassigned) [Example 17B] | 0.6
CCCCCOC(=O)[C@H](C)NP(=O)(OC[C@H]1O[C@@H](n2ccc(=O)[nH]c2=O)[C@](C)(N)[C@@H]1O)Oc1ccccc1 (single isomer, unassigned) [Example 18A] | 1.8
CCCCCOC(=O)[C@H](C)NP(=O)(OC[C@H]1O[C@@H](n2ccc(=O)[nH]c2=O)[C@](C)(N)[C@@H]1O)Oc1ccccc1 (single isomer, unassigned) [Example 18B] | 0.32
CCCCOC(=O)[C@H](C)NP(=O)(OC[C@H]1O[C@@H](n2ccc(=O)[nH]c2=O)[C@](C)(N)[C@@H]1O)Oc1ccccc1 (single isomer, unassigned) [Example 19A] | 1.4
CCCCOC(=O)[C@H](C)NP(=O)(OC[C@H]1O[C@@H](n2ccc(=O)[nH]c2=O)[C@](C)(N)[C@@H]1O)Oc1ccccc1 (single isomer, unassigned) [Example 19B] | 0.29
CCC(CC)COC(=O)[C@H](C)NP(=O)(OC[C@H]1O[C@@H](n2ccc(=O)[nH]c2=O)[C@](C)(N)[C@@H]1O)Oc1ccccc1 (single isomer, unassigned) [Example 20A] | 1.6
CCC(CC)COC(=O)[C@H](C)NP(=O)(OC[C@H]1O[C@@H](n2ccc(=O)[nH]c2=O)[C@](C)(N)[C@@H]1O)Oc1ccccc1 (single isomer, unassigned) [Example 20B] | 0.4
CC[C@@H](C)OC(=O)[C@H](C)NP(=O)(OC[C@H]1O[C@@H](n2ccc(=O)[nH]c2=O)[C@](C)(N)[C@@H]1O)Oc1ccccc1 (single isomer, unassigned) [Example 21A] | 5.1
CC[C@@H](C)OC(=O)[C@H](C)NP(=O)(OC[C@H]1O[C@@H](n2ccc(=O)[nH]c2=O)[C@](C)(N)[C@@H]1O)Oc1ccccc1 (single isomer, unassigned) [Example 21B] | 0.74
CC[C@@H](C)OC(=O)[C@H](C)NP(=O)(OC[C@H]1O[C@@H](n2ccc(=O)[nH]c2=O)[C@](C)(N)[C@@H]1O)Oc1ccccc1 (single isomer, unassigned) [Example 22A] | 21
CC[C@@H](C)OC(=O)[C@H](C)NP(=O)(OC[C@H]1O[C@@H](n2ccc(=O)[nH]c2=O)[C@](C)(N)[C@@H]1O)Oc1ccccc1 (single isomer, unassigned) [Example 22B] | 0.66

Reference: patent publication US20130143835A1, “HCV Polymerase Inhibitors” (MEDIVIR AB, priority 2011, published 2013)
